Laboratory results published in ChEMBL document CHEMBL3085777, “Improved synthesis and in vitro evaluation of the cytotoxic profile of oxysterols oxidized at C4 (4α- and 4β-hydroxycholesterol) and C7 (7-ketocholesterol, 7α- and 7β-hydroxycholesterol) on cells of the central nervous system” (Eur J Med Chem, 2013).
pIC50: −log10 of the molar value.

Legend:
[1] = Cytostatic activity against mouse 158N cells assessed as growth inhibition after 24 hrs by trypan blue-based cell counting method
C6 [2] = assay: Cytostatic activity against rat C6 cells assessed as growth inhibition after 24 hrs by trypan blue-based cell counting method; assay type: functional; details: C6, 24 h
[3] = Growth inhibition of human SK-N-BE cells after 24 hrs by trypan blue-based cell counting method; assay type: functional
[4] = Cytotoxicity against BALB/cJRj mouse astrocytes/oligodendrocytes assessed as cell viability at 50 uM after 24 hrs by trypan blue-based cell counting method; details: for Activity: 24 h, 50 µM; for viability at 24 h, 50 µM: BALB/cJRj, astrocytes/oligodendrocytes, read-out: Activity
[5] = Growth inhibition of BALB/cJRj mouse astrocytes/oligodendrocytes at 50 uM after 24 hrs by trypan blue-based cell counting method
C6 [6] = assay: Cytostatic activity against rat C6 cells assessed as cell viability after 24 hrs by trypan blue-based cell counting method; assay type: functional; details: C6, 24 h, read-out: LD50 (the source's name)
[7] = Cytotoxicity against human SK-N-BE cells assessed as cell viability after 24 hrs by trypan blue-based cell counting method; assay type: functional; details: read-out: LD50 (the source's name)
[8] = Cytostatic activity against mouse 158N cells assessed as cell viability after 24 hrs by trypan blue-based cell counting method; details: read-out: LD50
[9] = Cytotoxicity against mouse 158N cells assessed as cell viability after 24 hrs by trypan blue-based cell counting method; details: read-out: LD50
C6 [10] = assay: Cytotoxicity against rat C6 cells assessed as cell viability after 24 hrs by trypan blue-based cell counting method; assay type: functional; details: C6, 24 h, read-out: LD50 (the source's name)
C6 [11] = assay: Growth inhibition of rat C6 cells after 24 hrs by trypan blue-based cell counting method; assay type: functional; details: C6, 24 h
[12] = Growth inhibition of mouse 158N cells after 24 hrs by trypan blue-based cell counting method

Compound | pIC50 [1] | pIC50 (C6 [2]) | pIC50 [3] | Activity [4] | Activity [5] | CC50 (C6 [6]) | CC50 [7] | CC50 at 24 h [8] | CC50 at 24 h [9] | CC50 (C6 [10]) | pIC50 (C6 [11]) | pIC50 [12] | viability at 24 h, 50 µM [4]
CC(C)CCC[C@@H](C)[C@H]1CC[C@H]2[C@@H]3CC=C4[C@H](O)[C@@H](O)CC[C@]4(C)[C@H]3CC[C@]12C | 4.40 | ≤ 3.80 | < 3.80 | Non-toxic | Non-toxic | > 160 µM | > 160 µM | > 160 µM | – | – | – | – | –
CC(C)CCC[C@@H](C)[C@H]1CC[C@H]2[C@@H]3[C@H](O)C=C4C[C@@H](O)CC[C@]4(C)[C@H]3CC[C@]12C | – | – | ≤ 3.80 | Non-toxic | Non-toxic | – | > 160 µM | – | 60 µM | ≥ 160 µM | 4.40 | 4.82 | –
CC(C)CCC[C@@H](C)[C@H]1CC[C@H]2[C@@H]3CC=C4[C@@H](O)[C@@H](O)CC[C@]4(C)[C@H]3CC[C@]12C | 4.52 | ≤ 3.80 | < 3.80 | Non-toxic | Non-toxic | > 160 µM | > 160 µM | > 160 µM | – | – | – | – | –
CC(C)CCC[C@@H](C)[C@H]1CC[C@H]2[C@@H]3C(=O)C=C4C[C@@H](O)CC[C@]4(C)[C@H]3CC[C@]12C [7-OXOCHOLESTEROL] | – | – | 4.70 | – | Toxic | – | 60 µM | – | 30 µM | 60 µM | 4.70 | 5.00 | 70.5%
CC(C)CCC[C@@H](C)[C@H]1CC[C@H]2[C@@H]3[C@@H](O)C=C4C[C@@H](O)CC[C@]4(C)[C@H]3CC[C@]12C | – | – | 4.70 | – | Toxic | – | 55 µM | – | 15 µM | 60 µM | 4.82 | 4.82 | 19.9%
